The term IC50 denotes the concentration that inhibits the measured activity by half. Broadly, the EC50 is the concentration giving half of the maximal effect. The term AC50 denotes the concentration giving half of the maximal activity seen.

The source made the active and inactive calls.

We go through seven compounds from ChEMBL document CHEMBL1201862, “PubChem BioAssay data set” (2004).

Data set [1] has as its system HEK293. In words: cells. Type of data set: functional, cell-based. The note with it: Homo sapiens.
In data set [2] the test system is HEK293. The experiment in a line: cells. Type of data set: functional, cell-based. As to conditions: Homo sapiens. This is another data set of the same source.
The target in data set [3] is Nucleotide-binding oligomerization domain-containing protein 2 (Homo sapiens, UniProt Q9HC29). In words: NOD2 signaling inhibitors, cell-based, luminescence, uHTS, HEK293 (AID 1566). Format: functional.
In data set [4] the test system is HEK293. The experiment in a line: NOD2 signaling inhibitors in MDP-stimulated cells, cell-based, uHTS, luminescence (AID 2001). Format: functional. The note with it: Homo sapiens.
In data set [5] the test system is HEK293. In words: NOD1 signaling inhibitors, primary screen, cell-based, luminescence, uHTS (AID 1578). As to conditions: Homo sapiens. Format: functional.
The test system of data set [6] is HEK293. In words: cells. As to conditions: Homo sapiens. Format: functional, cell-based. This is another data set of the same source.
The target in the next data set is T1, Hexokinase HKDC1 (Homo sapiens, UniProt Q2TB90).
T1 sequence (Q2TB90 whole entry): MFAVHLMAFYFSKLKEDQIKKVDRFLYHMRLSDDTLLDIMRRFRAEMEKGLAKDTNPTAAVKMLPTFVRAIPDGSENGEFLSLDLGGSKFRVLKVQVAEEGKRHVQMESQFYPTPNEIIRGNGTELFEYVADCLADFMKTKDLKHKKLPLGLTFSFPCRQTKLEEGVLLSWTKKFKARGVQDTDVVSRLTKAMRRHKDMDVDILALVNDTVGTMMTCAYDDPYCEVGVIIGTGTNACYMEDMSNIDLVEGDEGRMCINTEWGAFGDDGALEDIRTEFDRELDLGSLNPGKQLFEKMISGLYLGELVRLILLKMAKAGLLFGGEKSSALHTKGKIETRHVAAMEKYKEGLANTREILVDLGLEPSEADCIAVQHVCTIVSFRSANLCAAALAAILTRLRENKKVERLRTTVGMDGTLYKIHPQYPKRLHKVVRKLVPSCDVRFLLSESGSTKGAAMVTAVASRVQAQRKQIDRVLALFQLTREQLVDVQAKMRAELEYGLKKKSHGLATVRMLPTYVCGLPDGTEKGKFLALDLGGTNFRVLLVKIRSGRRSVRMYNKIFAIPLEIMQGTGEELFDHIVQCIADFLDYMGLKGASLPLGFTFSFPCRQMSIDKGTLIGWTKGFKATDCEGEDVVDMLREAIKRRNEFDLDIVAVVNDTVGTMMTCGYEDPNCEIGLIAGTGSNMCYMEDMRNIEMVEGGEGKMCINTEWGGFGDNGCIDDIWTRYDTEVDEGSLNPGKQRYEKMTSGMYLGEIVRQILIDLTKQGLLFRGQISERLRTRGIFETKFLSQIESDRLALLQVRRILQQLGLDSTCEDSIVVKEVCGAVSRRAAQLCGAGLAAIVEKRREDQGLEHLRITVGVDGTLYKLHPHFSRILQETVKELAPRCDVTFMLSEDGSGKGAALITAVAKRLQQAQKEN
In words: HKDC1 hexokinase activators, dose response, biochemical, W721R variant (AID 504730). Format: functional.

The target of the next data set is T2, Hexokinase-1 (Homo sapiens, UniProt P19367).
T2 sequence (P19367 whole entry): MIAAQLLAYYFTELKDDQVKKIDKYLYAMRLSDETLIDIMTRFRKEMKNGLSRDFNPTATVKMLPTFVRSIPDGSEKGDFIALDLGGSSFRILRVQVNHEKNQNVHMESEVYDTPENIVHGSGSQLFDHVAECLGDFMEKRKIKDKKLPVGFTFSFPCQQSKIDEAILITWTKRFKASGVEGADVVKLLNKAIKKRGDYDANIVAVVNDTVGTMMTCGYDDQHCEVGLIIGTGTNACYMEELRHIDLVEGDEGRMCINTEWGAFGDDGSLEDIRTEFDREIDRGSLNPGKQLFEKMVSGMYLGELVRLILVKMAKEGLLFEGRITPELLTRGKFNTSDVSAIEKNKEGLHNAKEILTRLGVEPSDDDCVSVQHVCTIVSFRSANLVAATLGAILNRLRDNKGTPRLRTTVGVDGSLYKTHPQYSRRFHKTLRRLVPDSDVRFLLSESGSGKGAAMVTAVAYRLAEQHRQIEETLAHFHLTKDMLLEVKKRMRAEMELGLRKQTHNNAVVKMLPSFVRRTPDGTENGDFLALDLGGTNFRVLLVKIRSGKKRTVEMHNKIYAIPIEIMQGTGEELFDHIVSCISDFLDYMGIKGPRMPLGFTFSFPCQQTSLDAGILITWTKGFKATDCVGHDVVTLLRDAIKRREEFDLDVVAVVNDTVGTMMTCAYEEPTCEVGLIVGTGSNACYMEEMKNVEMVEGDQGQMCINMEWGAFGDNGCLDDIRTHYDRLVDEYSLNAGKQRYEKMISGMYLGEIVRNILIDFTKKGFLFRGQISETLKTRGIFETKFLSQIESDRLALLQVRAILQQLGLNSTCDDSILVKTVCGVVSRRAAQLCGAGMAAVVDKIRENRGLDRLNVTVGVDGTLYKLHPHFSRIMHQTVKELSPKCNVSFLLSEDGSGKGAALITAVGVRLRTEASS
In words: hexokinase 1 activators, dose response, selectivity assay for HKDC1 activator project, biochemical (AID 504762). Type of data set: functional.

Data set [7] can be described thus: growth suppression of PTEN-null colon cells, dose response, cell-based, HCT116 PTEN knockout (AID 1047).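 Note: HCT116 colon tumor cells with PTEN knocked out; cells exposed to compound for 60 hours before readout; potency for loss of cell viability measured by luminescence.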 Type of data set: functional.
Data set [8] in a line: growth suppression of beta-catenin-knockout colon cells, dose response, cell-based, HCT116, human colon tumor (AID 1045).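 Note: HCT116 colon tumor cells with beta catenin knocked out; cells exposed to compound for 60 hours.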 Format: functional.
Data set [9] can be described thus: inhibitors of SNCA 5'UTR-driven reporter translation, confirmation, H4 neuroglioma cells, luminescence (AID 1988). Type of data set: functional, cell-based.
For the next data set, the system named is Streptococcus. In words: Group A Streptococcus viability loss, dose response, counter-screen for streptokinase expression inhibitor project, luminescence, BacTiterGlo (AID 1915).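 Note: potency for reduction of bacterial viability or growth.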 Type of data set: functional, organism-based. In general terms: Counterscreens check selectivity or assay interference.
Data set [10] is described as follows: Luminescence Cell-Based Dose Response HTS to Identify Inhibitors of 5'UTR Stem-Loop Driven Prion Protein mRNA Translation in H4 Neuroglioblastoma Cells. [Related pubchem assays: 1827 (Project Summary), 1813 (Primary HTS)]. Type of data set: functional.
A short description of data set [11]: inhibitors of firefly luciferase expression or activity, dose response, H4 neuroglioma cells, luminescence (AID 1990). Format: functional, cell-based.
For data set [12], the system named is Streptococcus sp. 'group A'. The experiment in a line: growth inhibition of control SK(-) GAS strain, dose response, counter-screen for streptokinase expression inhibitor project, luminescence, kanamycin, BacTiterGlo, confirmation (AID 1900). Format: functional, organism-based.
In data set [13] the target is Melanin-concentrating hormone receptor 1 (Homo sapiens, UniProt Q99705). The experiment in a line: Late-stage fluorescence-based counterscreen for antagonists of the G-protein coupled receptor 7 (GPR7): cell-based dose response assay to identify antagonists of the melanin-concentrating hormone receptor 1 (MCHR1). [Related pubchem assays (depositor defined):AID1861, AID1880, AID1952, AID2148, AID2251, AID2257, AID485339]. Type of data set: functional.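 Note: stimulated with 30 nM MCH peptide agonist.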

The target in data set [14] is T3, Cytochrome P450 2D6 (Homo sapiens, UniProt P10635).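 Note: CYP2D6 member of a cytochrome P450 panel assay.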
Data set [15] addresses T3, Cytochrome P450 2D6. This is another data set of the same source.
The target of a further data set is ORF 73 (Human herpesvirus 8, UniProt O40947). The experiment in a line: inhibitors of C-LANA binding to LBS DNA, dose response, biochemical, fluorescence polarization, cherry-picked samples (AID 504725).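 Note: fluorescence polarization of a labeled DNA duplex reporting LANA DNA binding; potency is for inhibitors that block LANA binding to the DNA.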 Also noted: species or system Human gammaherpesvirus 8. For orientation: Fluorescence polarisation rises when a labelled molecule tumbles more slowly, as on binding a larger partner.
Chain of ORF 73 (O40947 whole entry): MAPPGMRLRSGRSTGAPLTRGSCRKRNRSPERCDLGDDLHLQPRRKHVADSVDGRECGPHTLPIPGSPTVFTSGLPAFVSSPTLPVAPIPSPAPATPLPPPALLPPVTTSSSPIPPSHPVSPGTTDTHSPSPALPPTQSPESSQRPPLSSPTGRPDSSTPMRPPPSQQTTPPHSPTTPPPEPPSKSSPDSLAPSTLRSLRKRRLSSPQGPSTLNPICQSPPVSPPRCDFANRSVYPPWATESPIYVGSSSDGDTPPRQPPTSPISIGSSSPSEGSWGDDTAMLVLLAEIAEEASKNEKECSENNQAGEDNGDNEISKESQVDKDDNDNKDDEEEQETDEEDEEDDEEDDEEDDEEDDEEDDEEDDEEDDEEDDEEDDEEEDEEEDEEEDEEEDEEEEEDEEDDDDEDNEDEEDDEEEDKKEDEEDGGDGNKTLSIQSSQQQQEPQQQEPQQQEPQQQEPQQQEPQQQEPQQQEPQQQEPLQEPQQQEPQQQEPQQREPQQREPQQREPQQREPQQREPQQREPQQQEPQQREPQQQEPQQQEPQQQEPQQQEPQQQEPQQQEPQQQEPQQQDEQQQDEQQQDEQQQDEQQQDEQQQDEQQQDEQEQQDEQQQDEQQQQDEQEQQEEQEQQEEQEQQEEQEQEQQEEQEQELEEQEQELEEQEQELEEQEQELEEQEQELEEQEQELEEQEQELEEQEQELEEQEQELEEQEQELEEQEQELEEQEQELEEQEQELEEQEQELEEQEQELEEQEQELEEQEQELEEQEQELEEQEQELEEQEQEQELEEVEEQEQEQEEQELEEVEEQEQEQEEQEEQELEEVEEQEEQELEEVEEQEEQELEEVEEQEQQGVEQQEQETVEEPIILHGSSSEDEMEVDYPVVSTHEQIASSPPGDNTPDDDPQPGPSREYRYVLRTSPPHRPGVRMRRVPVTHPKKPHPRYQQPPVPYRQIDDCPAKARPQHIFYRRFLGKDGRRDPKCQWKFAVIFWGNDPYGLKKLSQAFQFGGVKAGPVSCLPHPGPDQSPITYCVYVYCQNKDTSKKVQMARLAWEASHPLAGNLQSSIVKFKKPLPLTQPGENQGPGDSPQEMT

Chain of Nucleotide-binding oligomerization domain-containing protein 2 (Q9HC29 whole entry, the tested form may be a part): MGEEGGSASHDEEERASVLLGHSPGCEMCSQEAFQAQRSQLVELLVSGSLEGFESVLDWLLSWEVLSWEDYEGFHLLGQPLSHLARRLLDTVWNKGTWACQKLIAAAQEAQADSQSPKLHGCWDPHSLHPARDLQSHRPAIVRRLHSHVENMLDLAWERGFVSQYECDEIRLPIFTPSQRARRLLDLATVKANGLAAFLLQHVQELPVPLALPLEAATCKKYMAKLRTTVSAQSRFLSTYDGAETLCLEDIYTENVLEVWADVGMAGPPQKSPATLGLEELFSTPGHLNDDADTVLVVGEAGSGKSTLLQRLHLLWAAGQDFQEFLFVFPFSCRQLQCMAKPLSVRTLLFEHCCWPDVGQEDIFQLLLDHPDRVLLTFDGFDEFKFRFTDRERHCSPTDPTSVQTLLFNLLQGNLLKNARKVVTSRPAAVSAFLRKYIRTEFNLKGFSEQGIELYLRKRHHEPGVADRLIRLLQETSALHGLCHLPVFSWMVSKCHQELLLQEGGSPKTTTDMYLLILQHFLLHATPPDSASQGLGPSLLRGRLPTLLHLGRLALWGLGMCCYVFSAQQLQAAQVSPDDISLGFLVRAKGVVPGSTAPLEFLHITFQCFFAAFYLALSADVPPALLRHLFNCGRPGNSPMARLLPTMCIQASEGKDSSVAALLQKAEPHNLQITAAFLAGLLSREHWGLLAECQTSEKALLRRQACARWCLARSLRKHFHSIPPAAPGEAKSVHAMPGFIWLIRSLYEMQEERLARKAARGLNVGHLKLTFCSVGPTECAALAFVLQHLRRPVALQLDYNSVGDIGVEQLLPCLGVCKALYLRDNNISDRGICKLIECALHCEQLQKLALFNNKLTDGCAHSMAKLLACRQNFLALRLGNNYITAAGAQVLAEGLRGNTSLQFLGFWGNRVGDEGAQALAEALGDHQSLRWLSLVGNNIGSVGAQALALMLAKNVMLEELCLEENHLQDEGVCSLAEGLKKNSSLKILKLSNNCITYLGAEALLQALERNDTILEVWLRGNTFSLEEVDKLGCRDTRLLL
T3 sequence (P10635 whole entry): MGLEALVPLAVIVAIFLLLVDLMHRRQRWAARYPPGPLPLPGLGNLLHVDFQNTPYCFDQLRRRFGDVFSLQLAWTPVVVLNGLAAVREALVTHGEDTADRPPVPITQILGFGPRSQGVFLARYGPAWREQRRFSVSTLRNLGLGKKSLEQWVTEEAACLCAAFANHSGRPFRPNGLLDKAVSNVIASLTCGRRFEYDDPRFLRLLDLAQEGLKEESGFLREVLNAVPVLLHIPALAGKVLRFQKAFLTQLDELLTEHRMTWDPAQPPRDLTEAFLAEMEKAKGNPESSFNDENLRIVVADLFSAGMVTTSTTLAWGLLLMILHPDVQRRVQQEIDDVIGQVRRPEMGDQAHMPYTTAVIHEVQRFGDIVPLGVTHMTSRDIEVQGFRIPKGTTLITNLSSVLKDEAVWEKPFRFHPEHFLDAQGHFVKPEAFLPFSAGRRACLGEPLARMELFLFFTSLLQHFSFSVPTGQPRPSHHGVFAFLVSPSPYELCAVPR
Chain of Melanin-concentrating hormone receptor 1 (Q99705 whole entry): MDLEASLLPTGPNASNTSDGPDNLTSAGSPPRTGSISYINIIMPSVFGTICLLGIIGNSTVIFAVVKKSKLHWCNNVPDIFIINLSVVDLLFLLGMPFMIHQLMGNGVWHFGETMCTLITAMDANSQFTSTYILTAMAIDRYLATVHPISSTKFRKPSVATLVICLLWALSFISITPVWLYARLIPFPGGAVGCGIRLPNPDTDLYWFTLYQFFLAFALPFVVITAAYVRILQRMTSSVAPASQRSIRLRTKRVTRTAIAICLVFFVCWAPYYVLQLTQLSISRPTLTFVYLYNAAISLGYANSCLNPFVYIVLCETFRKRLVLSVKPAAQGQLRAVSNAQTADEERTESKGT

For `Cn1c(Sc2ccc(Cl)cc2)c(C=O)c2ccccc21`, the IC50 in the data set with HEK293 [1] was 0.748 µM (active); with HEK293 [2], > 20 µM (inactive); with HEK293 [4], 1.15 µM (active); with HEK293 [6] it was > 20 µM (inactive). Moreover, the EC50 in data set [3] was 2.17 µM (active); in the data set on HEK293 [5] it was 1.63 µM (active).

Turning to `Cn1cnnc1SC1c2cccc3cccc(c23)C1NS(=O)(=O)c1ccccc1` (stereo not drawn), the EC50 is 46.7 µM (inactive) at Hexokinase HKDC1 and 24.7 µM (inactive) at Hexokinase-1.

`Fc1ccc(NC2=NN=C(c3cc(F)ccc3F)CS2)cc1`: the EC50 was 18.5 µM (active) in [7], 20.1 µM (active) in data set [8], 35.7 µM (inactive) at Hexokinase HKDC1 and 28.9 µM (inactive) on Hexokinase-1.

In the case of `Cc1ccc(OCCn2c(NC(=O)c3ccco3)nc3ccccc32)cc1`, the EC50 was 10.3 µM (active) in [9]; 3.87 µM (active) in the data set on Streptococcus; > 20 µM (inactive) in data set [3]; 3.15 µM (active) in the data set with HEK293 [5]; 15.8 µM (active) in data set [10]; 13.1 µM (active) in data set [11]. Also, the EC50 in data set [12] was 1.6 µM (active). Also, the IC50 in the data set on HEK293 [1] was 4.87 µM (active); in the data set with HEK293 [2], > 20 µM (inactive); in the data set on HEK293 [4], 2.41 µM (active); with HEK293 [6] it was > 20 µM (inactive).

For `CC(C)c1ccc(-n2ncc(Cl)c(Oc3ccc(Cl)c(Cl)c3)c2=O)cc1`, the IC50 in data set [13] was 15.9 µM (inactive).

As for `COc1ccc(Oc2c(Cl)cnn(-c3cc(C)ccc3C)c2=O)cc1`, in [13], the IC50 is 12.2 µM (inactive).

As to `OCCN(CCO)c1nc(N2CCCCC2)c2nc(N(CCO)CCO)nc(N3CCCCC3)c2n1` [DIPYRIDAMOLE], the results for the AC50 result at Cytochrome P450 2D6 [14], on Cytochrome P450 2D6 [15] and at ORF 73 were “inactive”, 10 µM (active) and 8.87 µM (active), respectively.
